# What was measured:
# Format in all cases: in vivo
# [1] = system: upland rice (Oryza sp., var. Tebonnet, RICE); assay: Pre-emerge test, crop safety; conditions: rated 14 days after application, 0 = no damage, 100 = complete death
# In short: (§1)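 Visual ratings on a 0-100 scale (0 no damage, 100 all plants dead) were taken at 14 days after treatment. Rates of 15-1000 g ai/ha in acetone, 187 l/ha, were sprayed onto soil one day after planting (pre-emerge) or onto 2-3 leaf plants with 0.25% v/v surfactant (post-emerge).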
# [2] = system: field corn (Zea mays L., var. Dekalb 535, CORN); assay: Pre-emerge test, crop safety; conditions: rated 14 days after application, 0 = no damage, 100 = complete death
# In short: as §1
# [3] = system: upland rice (Oryza sp., var. Tebonnet, RICE); assay: Post-emerge test, crop safety; conditions: post-emerge, 14 days after application, rating scale 0-100
# In short: (§2)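 Each test used a mechanized track sprayer delivering 187 l/ha of acetone solution at 15–1000 g ai/ha. Post-emerge foliage at 2–3 leaves was treated with added 0.25% v/v non-ionic surfactant and bottom-watered only. Injury was assessed on day 14, where 100 means total kill.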
# [4] = system: field corn (Zea mays L., var. Dekalb 535, CORN); assay: Post-emerge test, crop safety; conditions: post-emerge, 14 days after application, rating scale 0-100
# In short: as §2
# [5] = system: redroot pigweed (Amaranthus retroflexus, AMARE); assay: Pre-emerge test, greenhouse herbicide activity screening; conditions: rated 14 days after application, 0 = no damage, 100 = complete death
# In short: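 Rating: 0–100 visual injury, 14 DAA. Application: acetone, 187 l/ha, 15–1000 g ai/ha, flat-fan track sprayer with nozzle 40–45 cm above soil or canopy. Post-emerge runs used 0.25% v/v surfactant on 2–3 leaf plants.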
# [6] = system: velvetleaf (Abutilon theophrasti, ABUTH); assay: Post-emerge test, greenhouse herbicide activity screening; conditions: post-emerge, 14 days after application, rating scale 0-100
# In short: (§3)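 Compounds in acetone were track-sprayed at 15-1000 g ai/ha (187 l/ha) on sandy loam pots: pre-emerge one day after seeding, post-emerge at 2-3 leaf stage with 0.25% v/v non-ionic surfactant. Phytotoxicity was rated 14 days later on a 0 (no damage) to 100 (complete death) scale.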
# [7] = system: common ragweed (Ambrosia artemisizfolia L., AMBEL); assay: as above; conditions: post-emerge, 14 days after application, rating scale 0-100
# In short: as §3
# [8] = system: ivyleaf morningglory (Ipomoea hederacea, IPOHE); assay: as above; conditions: post-emerge, 14 days after application, rating scale 0-100
# In short: as §3
# [9] = system: sicklepod (Cassia obtusifolia, CASOB); assay: as above; conditions: post-emerge, 14 days after application, rating scale 0-100
# In short: as §3
# [10] = system: barnyardgrass (Echinochloa crus-galli, ECHCG); assay: as above; conditions: post-emerge, 14 days after application, rating scale 0-100
# In short: as §3
# [11] = system: redroot pigweed (Amaranthus retroflexus, AMARE); assay: as above; conditions: post-emerge, 14 days after application, rating scale 0-100
# In short: as §3
# [12] = system: lambsquarters (Chenopodium album, CHEAL); assay: as above; conditions: post-emerge, 14 days after application, rating scale 0-100
# In short: as §3
# [13] = system: johnsongrass (Sorghum halepense, SORHA); assay: as above; conditions: post-emerge, 14 days after application, rating scale 0-100
# In short: as §3
# [14] = system: green foxtail (Setaria viridis, SETVI); assay: as above; conditions: post-emerge, 14 days after application, rating scale 0-100
# In short: as §3
# [15] = system: large crabgrass (Digitaria sanguinalis, DIGSA); assay: as above; conditions: post-emerge, 14 days after application, rating scale 0-100
# In short: as §3
# [16] = system: velvetleaf (Abutilon theophrasti, ABUTH); assay: Pre-emerge test, greenhouse herbicide activity screening; conditions: rated 14 days after application, 0 = no damage, 100 = complete death
# In short: (§4)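 Plants grown in 10 cm pots of sandy loam mix received acetone-dissolved compounds through a moving flat-fan nozzle. Doses ranged from 15 to 1000 g ai/ha. Pre-emerge pots were seeded one day earlier, post-emerge pots 8–21 days earlier. Fourteen days on, each pot was graded 0–100 for damage.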
# [17] = system: common ragweed (Ambrosia artemisizfolia L., AMBEL); assay: as above; conditions: rated 14 days after application, 0 = no damage, 100 = complete death
# In short: as §4
# [18] = system: ivyleaf morningglory (Ipomoea hederacea, IPOHE); assay: as above; conditions: rated 14 days after application, 0 = no damage, 100 = complete death
# In short: as §4
# [19] = system: sicklepod (Cassia obtusifolia, CASOB); assay: as above; conditions: rated 14 days after application, 0 = no damage, 100 = complete death
# In short: as §4
# [20] = system: barnyardgrass (Echinochloa crus-galli, ECHCG); assay: as above; conditions: rated 14 days after application, 0 = no damage, 100 = complete death
# In short: as §4
# [21] = system: lambsquarters (Chenopodium album, CHEAL); assay: as above; conditions: rated 14 days after application, 0 = no damage, 100 = complete death
# In short: as §4
# [22] = system: johnsongrass (Sorghum halepense, SORHA); assay: as above; conditions: rated 14 days after application, 0 = no damage, 100 = complete death
# In short: as §4
# [23] = system: green foxtail (Setaria viridis, SETVI); assay: as above; conditions: rated 14 days after application, 0 = no damage, 100 = complete death
# In short: as §4
# [24] = system: large crabgrass (Digitaria sanguinalis, DIGSA); assay: as above; conditions: rated 14 days after application, 0 = no damage, 100 = complete death
# In short: as §4
smiles,measurement,setting,value
COc1c(Cl)cc(F)c(-n2c(=O)cc(C(F)(F)F)n(C)c2=O)c1NC(=O)c1ccc(C#N)cc1 [2-67],"Pre-emerge phytotoxicity rating (0-100), crop damage, RICE",[1]; 63 g ai/ha,90
same,"Pre-emerge phytotoxicity rating (0-100), crop damage, RICE",[1]; 250 g ai/ha,90
same,"Pre-emerge phytotoxicity rating (0-100), crop damage, CORN",[2]; 63 g ai/ha,90
same,"Pre-emerge phytotoxicity rating (0-100), crop damage, CORN",[2]; 250 g ai/ha,99
same,phytotoxicity rating RICE,[3]; 63 g ai/ha,70
same,phytotoxicity rating RICE,[3]; 250 g ai/ha,80
same,phytotoxicity rating CORN,[4]; 63 g ai/ha,20
same,phytotoxicity rating CORN,[4]; 250 g ai/ha,95
same,"Pre-emerge Herbicidal Activity, phytotoxicity rating (0-100), AMARE",[5]; 63 g ai/ha,100
same,"Pre-emerge Herbicidal Activity, phytotoxicity rating (0-100), AMARE",[5]; 250 g ai/ha,100
same,phytotoxicity rating ABUTH,[6]; 63 g ai/ha,100
same,phytotoxicity rating ABUTH,[6]; 250 g ai/ha,100
same,phytotoxicity rating AMBEL,[7]; 63 g ai/ha,100
same,phytotoxicity rating AMBEL,[7]; 250 g ai/ha,100
same,phytotoxicity rating IPOHE,[8]; 63 g ai/ha,99
same,phytotoxicity rating IPOHE,[8]; 250 g ai/ha,100
same,phytotoxicity rating CASOB,[9]; 63 g ai/ha,100
same,phytotoxicity rating CASOB,[9]; 250 g ai/ha,100
same,phytotoxicity rating ECHCG,[10]; 63 g ai/ha,0
same,phytotoxicity rating ECHCG,[10]; 250 g ai/ha,40
same,phytotoxicity rating AMARE,[11]; 63 g ai/ha,100
same,phytotoxicity rating AMARE,[11]; 250 g ai/ha,100
same,phytotoxicity rating CHEAL,[12]; 63 g ai/ha,100
same,phytotoxicity rating CHEAL,[12]; 250 g ai/ha,100
same,phytotoxicity rating SORHA,[13]; 63 g ai/ha,0
same,phytotoxicity rating SORHA,[13]; 250 g ai/ha,80
same,phytotoxicity rating SETVI,[14]; 63 g ai/ha,20
same,phytotoxicity rating SETVI,[14]; 250 g ai/ha,30
same,phytotoxicity rating DIGSA,[15]; 63 g ai/ha,0
same,phytotoxicity rating DIGSA,[15]; 250 g ai/ha,40
same,"Pre-emerge Herbicidal Activity, phytotoxicity rating (0-100), ABUTH",[16]; 63 g ai/ha,100
same,"Pre-emerge Herbicidal Activity, phytotoxicity rating (0-100), ABUTH",[16]; 250 g ai/ha,100
same,"Pre-emerge Herbicidal Activity, phytotoxicity rating (0-100), AMBEL",[17]; 63 g ai/ha,100
same,"Pre-emerge Herbicidal Activity, phytotoxicity rating (0-100), AMBEL",[17]; 250 g ai/ha,100
same,"Pre-emerge Herbicidal Activity, phytotoxicity rating (0-100), IPOHE",[18]; 63 g ai/ha,100
same,"Pre-emerge Herbicidal Activity, phytotoxicity rating (0-100), IPOHE",[18]; 250 g ai/ha,100
same,"Pre-emerge Herbicidal Activity, phytotoxicity rating (0-100), CASOB",[19]; 63 g ai/ha,100
same,"Pre-emerge Herbicidal Activity, phytotoxicity rating (0-100), CASOB",[19]; 250 g ai/ha,100
same,"Pre-emerge Herbicidal Activity, phytotoxicity rating (0-100), ECHCG",[20]; 63 g ai/ha,50
same,"Pre-emerge Herbicidal Activity, phytotoxicity rating (0-100), ECHCG",[20]; 250 g ai/ha,95
same,"Pre-emerge Herbicidal Activity, phytotoxicity rating (0-100), CHEAL",[21]; 63 g ai/ha,100
same,"Pre-emerge Herbicidal Activity, phytotoxicity rating (0-100), CHEAL",[21]; 250 g ai/ha,100
same,"Pre-emerge Herbicidal Activity, phytotoxicity rating (0-100), SORHA",[22]; 63 g ai/ha,80
same,"Pre-emerge Herbicidal Activity, phytotoxicity rating (0-100), SORHA",[22]; 250 g ai/ha,100
same,"Pre-emerge Herbicidal Activity, phytotoxicity rating (0-100), SETVI",[23]; 63 g ai/ha,100
same,"Pre-emerge Herbicidal Activity, phytotoxicity rating (0-100), SETVI",[23]; 250 g ai/ha,100
same,"Pre-emerge Herbicidal Activity, phytotoxicity rating (0-100), DIGSA",[24]; 63 g ai/ha,100
same,"Pre-emerge Herbicidal Activity, phytotoxicity rating (0-100), DIGSA",[24]; 250 g ai/ha,100

# From patent US6355799B1, “Substituted benzene compounds, process for their preparation, and herbicidal and defoliant compositions containing them” (ISK Americas Incorporated, priority 1997, dated 2002)
